# Bridge positions count the residues as written; N and C are the ends. Square brackets hold non-standard residues; d marks the D form. Peptide text beside a SMILES is read from it. Bip = N[C@@H](Cc1ccc(-c2ccccc2)cc1)C(=O)O; Phe(3-Cl) = N[C@@H](Cc1cccc(Cl)c1)C(=O)O; Phe(3-Me) = Cc1cccc(C[C@H](N)C(=O)O)c1; 1Nal = N[C@@H](Cc1cccc2ccccc12)C(=O)O; Bta = N[C@@H](Cc1csc2ccccc12)C(=O)O; NMeA = CN[C@@H](C)C(=O)O; Orn = NCCC[C@H](N)C(=O)O; Dab = NCC[C@H](N)C(=O)O
# Biological target: T1, PE-labeled human PD-L1-Ig binding to Jurkat cell line over-expressing human PD-1 (Jurkat-PD-1) (Homo sapiens, UniProt Q15116)
# T1 construct: expressed in transfected cells; host or cells: Jurkat
# T1 sequence (Q15116 25-288): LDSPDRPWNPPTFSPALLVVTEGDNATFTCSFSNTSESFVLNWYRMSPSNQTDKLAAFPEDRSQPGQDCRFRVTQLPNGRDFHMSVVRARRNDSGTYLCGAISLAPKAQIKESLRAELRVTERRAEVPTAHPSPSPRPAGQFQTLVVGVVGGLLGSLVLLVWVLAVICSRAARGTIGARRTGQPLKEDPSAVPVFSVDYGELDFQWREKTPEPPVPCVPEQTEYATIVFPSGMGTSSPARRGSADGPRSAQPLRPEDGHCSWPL
# Assay: Jurkat-PD-1 Cell Binding High-Content Screening Assay (CBA): Method 1
# Details: Jurkat-hPD-1 cells, PE-labeled PD-L1-Ig 20 nM final; read-out: Jurkat HPDL1 PD1 IC50 (uM) (Method 1)
row,Compound,IC50 [µM]
1,CC(C)C[C@@H]1NC(=O)[C@H](CCN)NC(=O)[C@H](Cc2csc3ccccc23)NC(=O)[C@H](C)N(C)C(=O)[C@H](CCCN)NC(=O)[C@H](Cc2ccc(-c3ccccc3)cc2)NC(=O)[C@H](C(C)C)NC(=O)[C@H](Cc2c[nH]c3ccccc23)NC(=O)[C@H](CC(=O)O)NC(=O)[C@H](Cc2ccc(O)cc2)NC(=O)[C@H](Cc2ccccc2)NC(=O)CSC[C@@H](C(=O)N[C@@H](C)C(N)=O)NC(=O)[C@H]([C@@H](C)O)NC(=O)[C@H](C(C)C)NC1=O [Compound 1122] ({CH2CO}-FYDWV[Bip][Orn][NMeA][Bta][Dab]LVTCA-NH2; thioether N-14),0.24
2,CC(C)C[C@@H]1NC(=O)[C@H](CCCNC(=N)N)NC(=O)[C@H](Cc2csc3ccccc23)NC(=O)[C@H](C)N(C)C(=O)[C@H](CCCN)NC(=O)[C@H](Cc2ccc(-c3ccccc3)cc2)NC(=O)[C@H](C(C)C)NC(=O)[C@H](Cc2c[nH]c3ccccc23)NC(=O)[C@H](CC(=O)O)NC(=O)[C@H](Cc2ccc(O)cc2)NC(=O)[C@H](Cc2ccccc2)NC(=O)CSC[C@@H](C(=O)N[C@@H](C)C(N)=O)NC(=O)[C@H]([C@@H](C)O)NC(=O)[C@H](C(C)C)NC1=O [Compound 1124] ({CH2CO}-FYDWV[Bip][Orn][NMeA][Bta]RLVTCA-NH2; thioether N-14),0.69
3,CC(C)C[C@@H]1NC(=O)[C@H](CCN)NC(=O)[C@@H](CC(C)C)NC(=O)[C@H](C)N(C)C(=O)[C@H](CCCNC(=N)N)NC(=O)[C@H](Cc2ccc(-c3ccccc3)cc2)NC(=O)[C@H](C(C)C)NC(=O)[C@H](Cc2c[nH]c3ccccc23)NC(=O)[C@H](CC(=O)O)NC(=O)[C@H](Cc2cnc[nH]2)NC(=O)[C@H](Cc2ccccc2)NC(=O)CSC[C@@H](C(=O)N[C@@H](C)C(N)=O)NC(=O)[C@H]([C@@H](C)O)NC(=O)[C@H](C(C)C)NC1=O [Compound 1130] ({CH2CO}-FHDWV[Bip]R[NMeA][dL][Dab]LVTCA-NH2; thioether N-14),0.18
4,CC(C)C[C@@H]1NC(=O)[C@H](CCCN)NC(=O)[C@H](Cc2csc3ccccc23)NC(=O)[C@H](C)N(C)C(=O)[C@H](CCC(=O)O)NC(=O)[C@H](Cc2ccc(-c3ccccc3)cc2)NC(=O)[C@H](C(C)C)NC(=O)[C@H](Cc2c[nH]c3ccccc23)NC(=O)[C@H](CC(=O)O)NC(=O)[C@H](Cc2ccc(O)cc2)NC(=O)[C@H](Cc2ccccc2)NC(=O)CSC[C@@H](C(=O)N[C@@H](C)C(N)=O)NC(=O)[C@H]([C@@H](C)O)NC(=O)[C@H](C(C)C)NC1=O [Compound 1132] ({CH2CO}-FYDWV[Bip]E[NMeA][Bta][Orn]LVTCA-NH2; thioether N-14),0.16
5,CC(C)C[C@@H]1NC(=O)[C@H](CCCNC(=N)N)NC(=O)[C@H](Cc2csc3ccccc23)NC(=O)[C@H](C)N(C)C(=O)[C@H](CCC(=O)O)NC(=O)[C@H](Cc2ccc(-c3ccccc3)cc2)NC(=O)[C@H](C(C)C)NC(=O)[C@H](Cc2c[nH]c3ccccc23)NC(=O)[C@H](CC(=O)O)NC(=O)[C@H](Cc2ccc(O)cc2)NC(=O)[C@H](Cc2ccccc2)NC(=O)CSC[C@@H](C(=O)N[C@@H](C)C(N)=O)NC(=O)[C@H]([C@@H](C)O)NC(=O)[C@H](C(C)C)NC1=O [Compound 1133] ({CH2CO}-FYDWV[Bip]E[NMeA][Bta]RLVTCA-NH2; thioether N-14),0.35
6,CC(C)C[C@@H]1NC(=O)[C@H](CCN)NC(=O)[C@@H](CC(C)C)NC(=O)[C@H](C)N(C)C(=O)[C@H](CCC(=O)O)NC(=O)[C@H](Cc2ccc(-c3ccccc3)cc2)NC(=O)[C@H](C(C)C)NC(=O)[C@H](Cc2c[nH]c3ccccc23)NC(=O)[C@H](CC(=O)O)NC(=O)[C@H](Cc2ccc(O)cc2)NC(=O)[C@H](Cc2ccccc2)NC(=O)CSC[C@@H](C(=O)N[C@@H](C)C(N)=O)NC(=O)[C@H]([C@@H](C)O)NC(=O)[C@H](C(C)C)NC1=O [Compound 1134] ({CH2CO}-FYDWV[Bip]E[NMeA][dL][Dab]LVTCA-NH2; thioether N-14),0.11
7,CC(C)C[C@@H]1NC(=O)[C@H](CCCN)NC(=O)[C@@H](CC(C)C)NC(=O)[C@H](C)N(C)C(=O)[C@H](CCCNC(=N)N)NC(=O)[C@H](Cc2ccc(-c3ccccc3)cc2)NC(=O)[C@H](C(C)C)NC(=O)[C@H](Cc2c[nH]c3ccccc23)NC(=O)[C@H](CC(=O)O)NC(=O)[C@H](Cc2cnc[nH]2)NC(=O)[C@H](Cc2cnc[nH]2)NC(=O)CSC[C@@H](C(=O)N[C@@H](C)C(N)=O)NC(=O)[C@H]([C@@H](C)O)NC(=O)[C@H](C(C)C)NC1=O [Compound 1136] ({CH2CO}-HHDWV[Bip]R[NMeA][dL][Orn]LVTCA-NH2; thioether N-14),0.21

# Second part, the compound after the results:
row,IC50 [µM],Compound
1,0.06,CC(C)C[C@@H]1NC(=O)[C@H](CCN)NC(=O)[C@@H](CC(C)C)NC(=O)[C@H](C)N(C)C(=O)[C@H](CCCN)NC(=O)[C@H](Cc2ccc(-c3ccccc3)cc2)NC(=O)[C@H](C(C)C)NC(=O)[C@H](Cc2c[nH]c3ccccc23)NC(=O)[C@H](CC(=O)O)NC(=O)[C@H](Cc2ccc(O)cc2)NC(=O)[C@H](Cc2ccccc2)NC(=O)CSC[C@@H](C(=O)N[C@@H](C)C(N)=O)NC(=O)[C@H]([C@@H](C)O)NC(=O)[C@H](C(C)C)NC1=O [Compound 1121] ({CH2CO}-FYDWV[Bip][Orn][NMeA][dL][Dab]LVTCA-NH2; thioether N-14)
2,0.06,CC(C)C[C@@H]1NC(=O)[C@H](CCCNC(=N)N)NC(=O)[C@@H](CC(C)C)NC(=O)[C@H](C)N(C)C(=O)[C@H](CCCN)NC(=O)[C@H](Cc2ccc(-c3ccccc3)cc2)NC(=O)[C@H](C(C)C)NC(=O)[C@H](Cc2c[nH]c3ccccc23)NC(=O)[C@H](CC(=O)O)NC(=O)[C@H](Cc2ccc(O)cc2)NC(=O)[C@H](Cc2ccccc2)NC(=O)CSC[C@@H](C(=O)N[C@@H](C)C(N)=O)NC(=O)[C@H]([C@@H](C)O)NC(=O)[C@H](C(C)C)NC1=O [Compound 1123] ({CH2CO}-FYDWV[Bip][Orn][NMeA][dL]RLVTCA-NH2; thioether N-14)
3,0.05,Cc1cccc(C[C@@H]2NC(=O)[C@H](CC(=O)O)NC(=O)[C@H](Cc3ccc(O)cc3)NC(=O)[C@H](Cc3ccccc3)NC(=O)CSC[C@@H](C(=O)N[C@@H](C)C(N)=O)NC(=O)[C@H]([C@@H](C)O)NC(=O)[C@H](C(C)C)NC(=O)[C@H](CC(C)C)NC(=O)[C@H](CCCNC(=N)N)NC(=O)[C@@H](CC(C)C)NC(=O)[C@H](C)N(C)C(=O)[C@H](CCCNC(=N)N)NC(=O)[C@H](Cc3ccc(-c4ccccc4)cc3)NC(=O)[C@H](C(C)C)NC2=O)c1 [Compound 1125] ({CH2CO}-FYD[Phe(3-Me)]V[Bip]R[NMeA][dL]RLVTCA-NH2; thioether N-14)
4,0.23,CC(C)C[C@@H]1NC(=O)[C@H](CCCNC(=N)N)NC(=O)[C@@H](CC(C)C)NC(=O)[C@H](C)N(C)C(=O)[C@H](CCCNC(=N)N)NC(=O)[C@H](Cc2ccc(-c3ccccc3)cc2)NC(=O)[C@H](C(C)C)NC(=O)[C@H](Cc2cccc3ccccc23)NC(=O)[C@H](CC(=O)O)NC(=O)[C@H](Cc2ccc(O)cc2)NC(=O)[C@H](CC(N)=O)NC(=O)CSC[C@@H](C(=O)N[C@@H](C)C(N)=O)NC(=O)[C@H]([C@@H](C)O)NC(=O)[C@H](C(C)C)NC1=O [Compound 1126] ({CH2CO}-NYD[1Nal]V[Bip]R[NMeA][dL]RLVTCA-NH2; thioether N-14)
5,0.09,CC(C)C[C@@H]1NC(=O)[C@H](CCCNC(=N)N)NC(=O)[C@@H](CC(C)C)NC(=O)[C@H](C)N(C)C(=O)[C@H](CCCNC(=N)N)NC(=O)[C@H](Cc2ccc(-c3ccccc3)cc2)NC(=O)[C@H](C(C)C)NC(=O)[C@H](Cc2cccc(Cl)c2)NC(=O)[C@H](CC(=O)O)NC(=O)[C@H](Cc2ccc(O)cc2)NC(=O)[C@H](CC(N)=O)NC(=O)CSC[C@@H](C(=O)N[C@@H](C)C(N)=O)NC(=O)[C@H]([C@@H](C)O)NC(=O)[C@H](C(C)C)NC1=O [Compound 1127] ({CH2CO}-NYD[Phe(3-Cl)]V[Bip]R[NMeA][dL]RLVTCA-NH2; thioether N-14)
6,0.08,CC(C)C[C@@H]1NC(=O)[C@H](CCCN)NC(=O)[C@@H](CC(C)C)NC(=O)[C@H](C)N(C)C(=O)[C@H](CCCNC(=N)N)NC(=O)[C@H](Cc2ccc(-c3ccccc3)cc2)NC(=O)[C@H](C(C)C)NC(=O)[C@H](Cc2c[nH]c3ccccc23)NC(=O)[C@H](CC(=O)O)NC(=O)[C@H](Cc2ccc(O)cc2)NC(=O)[C@H](CC(N)=O)NC(=O)CSC[C@@H](C(=O)N[C@@H](C)C(N)=O)NC(=O)[C@H]([C@@H](C)O)NC(=O)[C@H](C(C)C)NC1=O [Compound 1128] ({CH2CO}-NYDWV[Bip]R[NMeA][dL][Orn]LVTCA-NH2; thioether N-14)
7,0.09,CC(C)C[C@@H]1NC(=O)[C@H](CCCN)NC(=O)[C@@H](CC(C)C)NC(=O)[C@H](C)N(C)C(=O)[C@H](CCCNC(=N)N)NC(=O)[C@H](Cc2ccc(-c3ccccc3)cc2)NC(=O)[C@H](C(C)C)NC(=O)[C@H](Cc2c[nH]c3ccccc23)NC(=O)[C@H](CC(=O)O)NC(=O)[C@H](Cc2cnc[nH]2)NC(=O)[C@H](Cc2ccccc2)NC(=O)CSC[C@@H](C(=O)N[C@@H](C)C(N)=O)NC(=O)[C@H]([C@@H](C)O)NC(=O)[C@H](C(C)C)NC1=O [Compound 1129] ({CH2CO}-FHDWV[Bip]R[NMeA][dL][Orn]LVTCA-NH2; thioether N-14)
8,0.28,CC(C)C[C@@H]1NC(=O)[C@H](CCCN)NC(=O)[C@@H](CC(C)C)NC(=O)[C@H](C)N(C)C(=O)[C@H](CCCNC(=N)N)NC(=O)[C@H](Cc2ccc(-c3ccccc3)cc2)NC(=O)[C@H](C(C)C)NC(=O)[C@H](Cc2c[nH]c3ccccc23)NC(=O)[C@H](CC(=O)O)NC(=O)[C@H](Cc2cnc[nH]2)NC(=O)[C@H](CC(N)=O)NC(=O)CSC[C@@H](C(=O)N[C@@H](C)C(N)=O)NC(=O)[C@H]([C@@H](C)O)NC(=O)[C@H](C(C)C)NC1=O [Compound 1131] ({CH2CO}-NHDWV[Bip]R[NMeA][dL][Orn]LVTCA-NH2; thioether N-14)
9,0.14,CC(C)C[C@@H]1NC(=O)[C@H](CCCNC(=N)N)NC(=O)[C@@H](CC(C)C)NC(=O)[C@H](C)N(C)C(=O)[C@H](CCC(=O)O)NC(=O)[C@H](Cc2ccc(-c3ccccc3)cc2)NC(=O)[C@H](C(C)C)NC(=O)[C@H](Cc2c[nH]c3ccccc23)NC(=O)[C@H](CC(=O)O)NC(=O)[C@H](Cc2ccc(O)cc2)NC(=O)[C@H](Cc2ccccc2)NC(=O)CSC[C@@H](C(=O)N[C@@H](CCC(=O)O)C(N)=O)NC(=O)[C@H]([C@@H](C)O)NC(=O)[C@H](C(C)C)NC1=O [Compound 1135] ({CH2CO}-FYDWV[Bip]E[NMeA][dL]RLVTCE-NH2; thioether N-14)

# From US20240409585A1, “MACROCYCLIC IMMUNOMODULATORS” (priority 2021, published 2024)
